The series is described as follows: in vitro. To be noted: human, hela cells, % viability.

The structures appear in SMILES notation.

In the case of `COC(=O)c1ccccc1NC(=O)c1ccc(-n2cnnn2)cc1` [CBK058360], the viability (commonly a read-out of living cells in per cent, often relative to untreated cells) at 28.5 h, 10 µM worked out at 91.1%.

Turning to `CCCCCc1nnc(NC(=O)c2cccs2)s1` [CBK058382], the viability at 28.5 h, 10 µM turned out to be 103%.

With `COc1ccc(/C=C/C(=O)O)cc1S(=O)(=O)N1CCCC1` [CBK058388], the viability at 28.5 h, 10 µM worked out at 93.5%.

As for `Cc1cc(C)nc(NC(=O)c2c(Cl)cccc2Cl)n1` [CBK058401], the viability at 28.5 h, 10 µM is 99.9%.

As for `CCn1cc(Cl)c(C(=O)Nc2ccsc2C(=O)OC)n1` [CBK058439], the viability at 28.5 h, 10 µM was found to be 90.9%.

Regarding `Cc1ccc(S(=O)(=O)N2CC=CCC2)cc1` [CBK058443], the viability at 28.5 h, 10 µM stood at 89%.

With `CCOC(=O)CNC(=O)c1cc(Br)c(OC)c(OC)c1` [CBK058454], the viability at 28.5 h, 10 µM was 116%.

`CC1CCN(C(=O)c2cccc(Cn3cc(Br)cn3)c2)CC1` [CBK058482]: the viability at 28.5 h, 10 µM worked out at 91.8%.

`O=C(CSc1ncn[nH]1)Nc1ncccn1` [CBK058488]: the viability at 28.5 h, 10 µM came to 105%.

In the case of `COCCOc1nc2ccccc2nc1C` [CBK058489], the viability at 28.5 h, 10 µM amounted to 103%.

For the molecule `O=C(Cc1ccc(Br)cc1)N1CCC(Cc2ccccc2)CC1` [CBK058493], the viability at 28.5 h, 10 µM came to 96.7%.

Turning to `O=C(CCN1CCN(CCO)CC1)Nc1cccc(Br)c1` [CBK058502], the viability at 28.5 h, 10 µM was found to be 102%.

On to `O=C(Nc1ccc(F)cc1)Nc1cccnc1Cl` [CBK058509], for which the viability at 28.5 h, 10 µM worked out at 90.4%.

With `O=C(c1cc2ncc(Br)cn2n1)N1CCOCC1` [CBK058513], the viability at 28.5 h, 10 µM was 97.9%.

`Cc1ccccc1CSCC(=O)N1CCN(c2ccccc2)CC1` [CBK058577]: the viability at 28.5 h, 10 µM was found to be 89%.

For `COc1ccc(C(=O)N2CCN(Cc3ccc(SC)cc3)CC2)cc1` [CBK058613], the viability at 28.5 h, 10 µM came out at 112%.

In the case of `CC(C)OC(=O)c1ccc(NC(=O)c2csc3c2CCCC3)cc1` [CBK058649], the viability at 28.5 h, 10 µM stood at 106%.

Consider `O=C(COc1ccc(Cl)cc1Br)N1CCCCCC1` [CBK058661], for which the viability at 28.5 h, 10 µM is 82.8%.

With `O=C(Nc1cccc(-c2nc3ncccc3o2)c1)c1cccnc1Cl` [CBK058695], the viability at 28.5 h, 10 µM is 92%.

In the case of `CC(C)(C)c1csc(NC(=O)C2CCCCC2)n1` [CBK058720], the viability at 28.5 h, 10 µM came to 98.1%.

Regarding `Cc1ccc(CSCC(=O)N2CCC(Cc3ccccc3)CC2)cc1` [CBK058739], the viability at 28.5 h, 10 µM turned out to be 95.6%.

Regarding `COc1ccc(CCNCc2cccc(Cl)c2)cc1` [CBK058787], where the note is “bulk resorufin, single well”, the viability at 28.5 h, 10 µM was found to be 90%.

As for `CC1CCCCN1C(=O)c1cccc(Cn2cc(Br)c([N+](=O)[O-])n2)c1` (centres unmarked) [CBK058788], the viability at 28.5 h, 10 µM is 104%.

For the molecule `CC(C)COC(=O)n1ccc(C(=O)N2CCCCC2)n1` [CBK058828], the viability at 28.5 h, 10 µM is 84.9%.

In the case of `COC(=O)c1csc2nc(NCCCO)sc12` [CBK058832], the viability at 28.5 h, 10 µM is 91.4%.

As for `COc1cc(C)nc(OCCNS(=O)(=O)c2cc(C)ccc2C)n1` [CBK058870], the viability at 28.5 h, 10 µM was found to be 91.9%.

As for `Cc1ccc(OCC(O)CN2CCN(c3ccccn3)CC2)cc1C` (centres unmarked) [CBK058884], the viability at 28.5 h, 10 µM came to 86.9%.

Turning to `O=C(O)c1cc(S(=O)(=O)NCc2ccco2)ccc1Cl` [CBK058905], the viability at 28.5 h, 10 µM came to 85.4%.

In the case of `O=C(NC(Cc1cnc[nH]1)C(=O)O)c1ccccc1` (centres unmarked) [CBK059018], the viability at 28.5 h, 10 µM was 102%.

As to `O=S(=O)(c1ccc(F)c(F)c1F)n1ccc2c(N3CCNCC3)nccc21` [CBK059066C], the viability at 28.5 h, 10 µM was determined as 106%.

In the case of `CCC(C)NC1=NC(=O)C(CC(=O)N(C)c2ccccc2)S1` (centres unmarked) [CBK059110T], the viability at 28.5 h, 10 µM worked out at 83.3%.

For the molecule `CCC(C)NC1=NC(=O)C(CC(=O)Nc2ccccc2Cl)S1` (centres unmarked) [CBK059133T], the viability at 28.5 h, 10 µM is 97.3%.

Turning to `CC1(c2ccccc2)CC(C)(C)N(C(=O)C2CCCO2)c2ccccc21` (centres unmarked) [CBK059175], the viability at 28.5 h, 10 µM was 97.5%.

Consider `CN1CCN(CC(=O)N2c3ccccc3C(C)(c3ccc(Cl)cc3)CC2(C)C)CC1` (centres unmarked) [CBK059202], for which the viability at 28.5 h, 10 µM was 88.1%.

For the molecule `CNC(=O)c1nc(NC)oc1C` [CBK059214], the viability at 28.5 h, 10 µM stood at 94.4%.

Source of the values: article PMC12040169 (PLOS Biology, 2025).
